Read-outs that look alike come from different tables or passages of the source. No end group written: not given here.
Experiments:
GST-HsPRMT7 [1] = target: T1, GST-HsPRMT7 (Homo sapiens, UniProt Q9NVM4); assay: Michaelis-Menten kinetics of peptide substrate methylation (P81 phosphocellulose paper assay); format: biochemical; parameters: key to Vmax, Michaelis-Menten best-fit value, Fig7 / Vmax, Michaelis-Menten best-fit value, Fig8: Vmax expressed as cpm (averages of cycles 2–4); conditions: for Km / Vmax, Michaelis-Menten best-fit value, Fig7 / Vmax, Michaelis-Menten best-fit value, Fig8: 60 min, 25°C; for change of Vmax after adding 130 mM KCl: with vs without 130 mM KCl (Fig 8, Table 2), in words; for Vmax, times lower than RKR: experiments of Fig 7, relative to RKR peptide
T1 construct: full-length human PRMT7 (residues 1–692); 34693; host or cells: E. coli BL21 DE3
T1 sequence (Q9NVM4 1-692): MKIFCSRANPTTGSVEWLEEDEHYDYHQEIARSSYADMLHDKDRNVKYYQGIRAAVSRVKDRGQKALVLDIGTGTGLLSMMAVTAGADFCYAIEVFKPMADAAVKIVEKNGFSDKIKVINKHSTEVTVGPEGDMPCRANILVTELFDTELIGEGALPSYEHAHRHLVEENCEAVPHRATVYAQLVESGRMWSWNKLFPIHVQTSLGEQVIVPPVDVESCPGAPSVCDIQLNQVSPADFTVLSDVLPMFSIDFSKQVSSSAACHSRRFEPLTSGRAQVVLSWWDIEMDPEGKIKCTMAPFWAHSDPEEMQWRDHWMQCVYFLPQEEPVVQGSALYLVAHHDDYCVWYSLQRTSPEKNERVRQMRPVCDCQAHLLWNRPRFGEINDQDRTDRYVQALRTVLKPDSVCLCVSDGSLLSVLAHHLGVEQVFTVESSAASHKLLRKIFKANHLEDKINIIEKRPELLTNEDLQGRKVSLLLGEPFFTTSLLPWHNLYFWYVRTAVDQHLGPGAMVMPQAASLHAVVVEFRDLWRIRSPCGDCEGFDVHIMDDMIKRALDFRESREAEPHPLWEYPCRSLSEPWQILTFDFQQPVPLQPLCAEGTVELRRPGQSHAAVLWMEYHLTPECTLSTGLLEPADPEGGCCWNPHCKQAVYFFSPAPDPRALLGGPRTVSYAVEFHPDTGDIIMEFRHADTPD
Experimental: (§1) In vitro methylation assays were performed with GST-HsPRMT7, the indicated substrate protein or peptide, and 1.4 μM S-adenosyl-L-[methyl-^3H]methionine ([^3H]-AdoMet; PerkinElmer cat no. NET155V), prepared from diluting a stock of 7.0 μM [^3H]-AdoMet (81.9 Ci/mmol, 1 mCi/mL in 9:1 10 mM H2SO4:EtOH, v/v) in 10 mM HCl. All reactions were performed using distilled water buffered with 50 mM potassium HEPES, pH 9.5 and 1 mM DTT, reaching a final reaction volume of 30 μL. The reactions were initiated by adding [^3H]-AdoMet to a final concentration of 0.14 μM. Control reactions (enzyme-only, substrate-only) contained distilled water instead of substrate or GST-HsPRMT7, respectively. After initiation with [^3H]-AdoMet, all reactions analyzed via P81 phosphocellulose filter paper assay were incubated in a water bath at 25°C unless otherwise indicated for the specified time periods and were terminated with 0.5 μL 100% (w/v) trifluoroacetic acid (TFA). P81 assays performed at t = 0 were individually terminated immediately following initiation. Samples analyzed via SDS-PAGE were incubated at 4°C for 24 hours and were quenched by adding 5x SDS sample loading buffer (250 mM Tris-HCl, pH 6.8; 10% SDS, 30% glycerol, 10% β-mercaptoethanol, 0.2% bromophenol blue), followed by heating at 97°C for 3 min.
(§2) In vitro methylation assays with GST-HsPRMT7, selected methyl-accepting substrates, and [^3H]-AdoMet were set up as described previously and performed in triplicate. Following incubation at 25°C unless otherwise indicated for the time periods specified, all samples were quenched with 0.5 μL 100% TFA and centrifuged at 9,300 g for 10 seconds in an Eppendorf centrifuge (Model 5417C). 1 cm^2 pieces of P81 phosphocellulose filter paper (LabAlley catalog no. 05-717-2A) were spotted with 25 μL from each reaction mixture and set to dry overnight. The following day, all filter paper pieces were washed three times with 50 mM sodium bicarbonate solution, pH 9.0, and dried again in liquid scintillation vials. After 5 mL of Safety Solve fluor (RPI industries) was added to each vial, [^3H] radioactivity in each sample was quantified via liquid scintillation counter (Beckman LS6500) for four total cycles at 5 minutes per sample. All data presented are expressed as averages of the cpm from cycles 2–4.
(§3) Statistical analyses were performed using the “Analyze Data” function on GraphPad Prism v.8.0.1. To determine statistical significance, unpaired homoscedastic two-tailed Student’s t tests were performed with significance level α = 0.05 with the relevant data. To obtain apparent km and Vmax values, kinetic data were analyzed by non-linear regression using the Michaelis-Menten equation.

GST-HsPRMT7 [2] = target: T1, GST-HsPRMT7; assay: P81 phosphocellulose filter paper methylation assay with peptide substrates (cpm, end point and time course); format: biochemical; conditions: for methylation activity compared with enzyme-only control: 0-120 min time course (Fig 6); for Difference between means ± SEM vs GST-HsPRMT7 + 10 uM Hs H2B (23-37), Fig5: 10 uM peptide, 4°C
Experimental: as §1, §2, §3

human PRMT7 = conditions: relative to unsubstituted peptide; cited from earlier work
Experimental: Comparatively, a previous study of ionic strength in human HEK293 cells estimates the intracellular concentration of potassium ions to be about 120–140 mM in human cells. As such, our results in Fig 7 led us to question whether this dramatic decrease in activity may be associated with a loss of either substrate-enzyme binding affinity or catalytic activity. || We confirm that human PRMT7 activity is quite sensitive to changes in the RXR target sequence in the substrate protein. […] The exquisite specificity of PRMT7 toward the basic RXR motif can be contrasted to the much broader speci ...

[3] = + 130 mM KCl, 5 μg GST-HsPRMT7, 0.14 μM [3H]-AdoMet, GraphPad Prism fit, read-out: Km, Michaelis-Menten best-fit value, Fig8
[4] = +130 mM KCl, apparent km, 5 μg GST-HsPRMT7, various peptide concentrations, 0.14 μM [3H]-AdoMet, pH 9.5, Michaelis-Menten fit, triplicates (Fig 8), read-out: km
[5] = no added salt, 5 μg GST-HsPRMT7, 0.14 μM [3H]-AdoMet, GraphPad Prism fit
[6] = no added salt, 5 μg GST-HsPRMT7, 0.14 μM [3H]-AdoMet, GraphPad Prism fit, read-out: Km, Michaelis-Menten best-fit value, Fig7
[7] = no added salt, apparent km of peptide substrate, 5 μg GST-HsPRMT7, various peptide concentrations, 0.14 μM [3H]-AdoMet, pH 9.5, Michaelis-Menten fit, triplicates (Fig 8), read-out: km
[8] = no salt, 5 μg GST-HsPRMT7, 0.14 μM [3H]-AdoMet, GraphPad Prism fit
[9] = no salt, 5 μg GST-HsPRMT7, 0.14 μM [3H]-AdoMet, GraphPad Prism fit, read-out: Km, Michaelis-Menten best-fit value, Fig8
[10] = 10 μM peptide, 5 μg GST-HsPRMT7, 25°C, in words
[11] = no added salt, 5 μg GST-HsPRMT7, 0.14 μM [3H]-AdoMet, experiments of Fig 7, read-out: apparent km (binding affinities), Fig 7
[12] = from Table 2, no added salt, response to reviewers, RGG peptide apparently = Mono R

Substance	Km (GST-HsPRMT7 [1]; [3]) [µM]	Km (GST-HsPRMT7 [1]; [4]) [µM]	Vmax, Michaelis-Menten best-fit value, Fig7 (GST-HsPRMT7 [1]; [5])	Km (GST-HsPRMT7 [1]; [6]) [µM]	Km (GST-HsPRMT7 [1]; [7]) [µM]	Vmax, Michaelis-Menten best-fit value, Fig8 (GST-HsPRMT7 [1]; [8])	Km (GST-HsPRMT7 [1]; [9]) [µM]	change of Vmax after adding 130 mM KCl (GST-HsPRMT7 [1])	PRMT7 activity with substituted human histone H2B (23–37) peptides (human PRMT7)	other results
Ac-KKGGRGRKGKKY-NH2 [synthetic RXR peptide with an additional lysine after the RGR motif]	2.43	2.4	1042	0.5	0.5	969.7	0.514	up to an approximately three-fold decrease		
Ac-KKGKRGRGGKKY-NH2 [synthetic RXR peptide with an additional lysine before the RGR motif]	3.35	3.3	1553	0.895	0.6	1150	0.601	up to an approximately three-fold decrease		
KKDGKKRRKSRKESY [Xl H2B (23–37), synthetic peptide of amino acids 23–37 of Xenopus laevis histone H2B, containing 29-RRKSR-33]										GST-HsPRMT7 methylation activity (GST-HsPRMT7 [2]; 10 μM peptide, 5 μg GST-HsPRMT7, 0.14 μM [3H]-AdoMet, 40 min, 25°C (Fig 3), in words): no significant methylation activity over background; methylation activity compared with enzyme-only control (GST-HsPRMT7 [2]; [10]): low methylation activity but was significantly above control; methylation by human PRMT7 (GST-HsPRMT7 [2]; 10 and 50 μM peptide, 5 μg GST-HsPRMT7, 25°C, 0-3 h time course (Fig 4), in words): methylated by human PRMT7, albeit at low levels; Mean of GST-HsPRMT7 + peptide, Fig3 (GST-HsPRMT7 [2]; mean of n = 3, 10 μM peptide, 40 min, 25°C): 98.42 cpm; Difference between means ± SEM vs peptide only, Fig3 (GST-HsPRMT7 [2]; n = 3, 10 μM peptide, 40 min, 25°C, SEM): 28.16 ± 17.00 cpm
R33K: human histone H2B (23–37) peptide with R33K substitution, from ref 11 (KKDGKKRKRSKKESY; not fully specified (N-terminus, C-terminus); UniProt P62807 24-38, looked up, variant R33K)									at least a two-thirds reduction	
R31K-substituted human H2B (23–37): R31K-substituted human H2B (23–37) peptide, from ref 11 (KKDGKKRKKSRKESY; not fully specified (N-terminus, C-terminus); UniProt P62807 24-38, looked up, variant R31K)									no methyl-accepting activity	
Ac-KKGGRGGGGKKY-NH2 [Mono R, synthetic peptide with a single arginine flanked by glycine and lysine residues]	0.28		262.6	0.223	1.4	993.4	1.42			Vmax, times lower than RKR (GST-HsPRMT7 [1]): 5–6 times; Km (GST-HsPRMT7 [1]; [11]): 1.4 µM; PRMT7 methylation activity (GST-HsPRMT7 [2]; 10 μM peptide, 5 μg GST-HsPRMT7, 0.14 μM [3H]-AdoMet, 20 h, 4°C (Fig 5), in words): barely detectable over the PRMT7-only control; methylation activity compared with enzyme-only control (GST-HsPRMT7 [2]; [10]): not significantly greater than control; Difference between means ± SEM vs GST-HsPRMT7 + 10 uM Hs H2B (23-37), Fig5 (GST-HsPRMT7 [2]; 20 h, n = 3, SEM): -4140 ± 625.1 cpm
R29K: human histone H2B (23–37) peptide with R29K substitution, from ref 11 (KKDGKKKKRSRKESY; not fully specified (N-terminus, C-terminus); UniProt P62807 24-38, looked up, variant R29K)									at least a two-thirds reduction	

More lines, main results first:

Km (GST-HsPRMT7 [1]; [3]) [µM]	Km (GST-HsPRMT7 [1]; [4]) [µM]	Vmax, Michaelis-Menten best-fit value, Fig7 (GST-HsPRMT7 [1]; [5])	Km (GST-HsPRMT7 [1]; [6]) [µM]	Km (GST-HsPRMT7 [1]; [7]) [µM]	Vmax, Michaelis-Menten best-fit value, Fig8 (GST-HsPRMT7 [1]; [8])	Km (GST-HsPRMT7 [1]; [9]) [µM]	Substance	change of Vmax after adding 130 mM KCl (GST-HsPRMT7 [1])	PRMT7 activity with substituted human histone H2B (23–37) peptides (human PRMT7)	other results
		299.5	0.192	2.8	752.7	2.79	Ac-KKGGRERGGKKY-NH2 [synthetic RXR peptide with glutamate within the motif]			Vmax, times lower than RKR (GST-HsPRMT7 [1]): 5–6 times; Km (GST-HsPRMT7 [1]; [11]): 2.8 µM
6.88	6.9	1749	0.759	0.6	1716	0.553	Ac-KKGGRKRGGKKY-NH2 [synthetic RXR peptide with lysine within the motif]	up to an approximately three-fold decrease		
6.21	6.2	1036	0.682	0.7	2435	0.743	Ac-KKGGRGRGGKKY-NH2 [synthetic peptide with an RGR motif flanked by glycine and lysine residues]	up to an approximately three-fold decrease		Vmax relative to the RGG peptide (GST-HsPRMT7 [1]; [12]): about 2.5 fold; apparent km relative to the RGG peptide (GST-HsPRMT7 [1]; [12]): about half; methylation activity (maximum value) (GST-HsPRMT7 [2]; 10 μM peptide, 5 μg GST-HsPRMT7, 0.14 μM [3H]-AdoMet, 25°C, t = 120 min (Fig 6), approximate): about 800 cpm; decrease of PRMT7 activity relative to human H2B (23–37) (GST-HsPRMT7 [2]; 10 μM peptide, 5 μg GST-HsPRMT7, 0.14 μM [3H]-AdoMet, 20 h, 4°C (Fig 5)): 4 to 5 fold; Difference between means ± SEM vs GST-HsPRMT7 + 10 uM Hs H2B (23-37), Fig5 (GST-HsPRMT7 [2]; 20 h, n = 3, SEM): -2852 ± 662.1 cpm
